20 compounds from patent publication US20210220356A1, “DIHYDROPYRIMIDINE DERIVATIVES AND USES THEREOF IN THE TREATMENT OF HBV INFECTION OR OF HBV-INDUCED DISEASES” (Janssen Sciences Ireland Unlimited Company, priority 2018, published 2021) can be followed below.

The structures appear in SMILES notation. pEC50: −log10 of the molar value. Structures can show the parent of a compound that is named as a salt. Where two headings read alike, the source gives them in different places.

The subject of series [1] is HBV. The series is described as follows: HBV inhibitory activity in HepG2.2.15 cells (HBV DNA in culture medium by q-PCR). The class given is cell-based. An outline of the steps: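 HepG2.2.15 cells (40,000/well, 2% FBS) treated 6 days with compounds, medium refreshed once; 8 points, 3-fold dilution, top 10 uM. Secreted HBV DNA in medium extracted and quantified by q-PCR; EC50 calculated from dose-response.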

Series [2] can be described thus: Cytotoxicity determination in HepG2.2.15 cells (CCK-8). The class given is cell-based. As to conditions: human, HepG2.2.15 cells, 5,000 cells/well, 6 days of compound treatment, CCK-8 absorbance 450 nm, highest concentration 100 uM. The method, boiled down:
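HepG2.2.15 cells, 5,000/well in 2% FBS medium, treated 6 days with compound (medium refreshed midway), 8-point 3-fold dilutions from 100 uM top. Viability read by CCK-8, 2.5 h at 37° C, absorbance 450 nm with 630 nm reference; CC50 from curve fitting.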

Where [3] appears, read: Hepatitis B virus, HepG2.2.15, 144 h, HepG2.2.15 cells, 40,000 cells/well, 6 days of compound treatment, HBV DNA in culture medium by q-PCR, highest concentration 10 uM, read-out: EC50.
[4] abbreviates: HepG2.2.15 cells, 40,000 cells/well, 6 days of compound treatment, HBV DNA in culture medium by q-PCR, highest concentration 10 uM, read-out: EC50.

One may read the pEC50 as −log10 of the EC50, conventionally taken in molar units. For orientation: CC50 means the concentration at which the toxic effect on the cells reaches its halfway point. Higher therefore signals lower toxicity to the cells. As for `CCOC(=O)C1=C(C2CCc3cn(CCC(=O)O)c(C#N)c3C2)NC(c2nccs2)=NC1c1ccc(F)c(F)c1Cl` (stereo not shown) [Compound 63, 3-(6-(6-(2-Chloro-3,4-difluorophenyl)-5-(ethoxycarbonyl)-2-(thiazol-2-yl)-3,6-dihydropyrimidin-4-yl)-1-cyano-4,5,6,7-tetrahydro-2H-isoindol-2-yl)propanoic acid], in series [1] (setting [3]), the pEC50 is 6.36. Moreover, the half-maximal cytotoxic concentration (CC50) at 6 days in series [2] (HepG2.2.15 cells) is 5.1 µM.

Take `COC(=O)C1=C(C2CCc3nn(CC(C)(C)C(=O)O)cc3C2)NC(c2nccs2)=NC1c1ccc(F)c(F)c1Cl` (stereo not shown) [Compound 84d, 3-(5-(6-(2-chloro-3,4-difluorophenyl)-5-(methoxycarbonyl)-2-(thiazol-2-yl)-3,6-dihydropyrimidin-4-yl)-4,5,6,7-tetrahydro-2H-indazol-2-yl)-2,2-dimethylpropanoic acid]: the pEC50 in series [1] (setting [3]) is 7.73. This compound displayed a CC50 at 6 days in series [2] (HepG2.2.15 cells) of 16.4 µM.

For `CCOC(=O)C1=C(C2CCc3nn(CC(C)(C)C(=O)O)cc3C2)NC(c2nccs2)=NC1c1ccc(F)c(F)c1C` (stereo not shown) [Compound 92c, 3-(5-(6-(3,4-difluoro-2-methylphenyl)-5-(ethoxycarbonyl)-2-(thiazol-2-yl)-3,6-dihydropyrimidin-4-yl)-4,5,6,7-tetrahydro-2H-indazol-2-yl)-2,2-dimethylpropanoic acid], the negative-log EC50 (pEC50) in series [1] (setting [3]) is 8.10. The compound also showed a half-maximal cytotoxic concentration (CC50) at 6 days in series [2] (HepG2.2.15 cells) of 9.3 µM.

`CCOC(=O)C1=C(C2CCc3nn(CC(C)(C)C(=O)O)cc3C2)NC(c2ncc(F)cc2F)=NC1c1ccc(F)c(F)c1Cl` (stereo not shown) [Compound 94c, 3-(5-(6-(2-Chloro-3,4-difluorophenyl)-2-(3,5-difluoropyridin-2-yl)-5-(ethoxycarbonyl)-3,6-dihydropyrimidin-4-yl)-4,5,6,7-tetrahydro-2H-indazol-2-yl)-2,2-dimethylpropanoic acid hydrochloride] showed a pEC50 in series [1] (Hepatitis B virus, HepG2.2.15, 144 h) of 8.15. In series [2], this compound gave a 50% cytotoxic concentration (CC50) at 6 days of 16.5 µM.

As to `CCOC(=O)C1=C(C2CCc3nn(C(C)CC(=O)O)cc3C2)NC(c2nccs2)=NC1c1ccc(F)c(F)c1Cl` (single isomer, unassigned) [Compound 51b, 3-(5-(6-(2-chloro-3,4-difluorophenyl)-5-(ethoxycarbonyl)-2-(thiazol-2-yl)-3,6-dihydropyrimidin-4-yl)-4,5,6,7-tetrahydro-2H-indazol-2-yl)butanoic acid], the pEC50 in series [1] (setting [4]) is 7.93. This compound yielded a 50% cytotoxic concentration (CC50) at 6 days in series [2] (HepG2.2.15 cells) of 7.7 µM.

Regarding `COC(=O)C1=C(C2CCc3nn([C@H]4C[C@@H](C(=O)O)C4)cc3C2)NC(c2nccs2)=NC1c1ccc(F)c(F)c1Cl` (stereo partly drawn) [Compound 96d, (cis)-3-(5-(6-(2-Chloro-3,4-difluorophenyl)-5-(methoxycarbonyl)-2-(thiazol-2-yl)-3,6-dihydropyrimidin-4-yl)-4,5,6,7-tetrahydro-2H-indazol-2-yl)cyclobutanecarboxylic acid], the pEC50 in series [1] (setting [3]) is 7.61. Further, the CC50 at 6 days in series [2] (HepG2.2.15 cells) was determined as 19.3 µM.

Turning to `COC(=O)C1=C(C2CCc3nn(CCC(=O)O)cc3C2)NC(c2nccs2)=NC1c1ccc(F)c(F)c1Cl` (single isomer, unassigned) [Compound 70b, 3-(-5-(6-(2-chloro-3,4-difluorophenyl)-5-(methoxycarbonyl)-2-(thiazol-2-yl)-3,6-dihydropyrimidin-4-yl)-4,5,6,7-tetrahydro-2H-indazol-2-yl)propanoic acid], the negative-log EC50 (pEC50) in series [1] (setting [4]) was 7.08. Also, the CC50 at 6 days in series [2] (HepG2.2.15 cells) amounted to 22.7 µM.

As to `CCOC(=O)C1=C(C2CCc3nn(CC(C)(C)C(=O)O)cc3C2)NC(c2nccs2)=NC1c1ccc(F)c(F)c1Cl` (single isomer, unassigned) [Compound 53a, 3-(5-(6-(2-Chloro-3,4-difluorophenyl)-5-(ethoxycarbonyl)-2-(thiazol-2-yl)-3,6-dihydropyrimidin-4-yl)-4,5,6,7-tetrahydro-2H-indazol-2-yl)-2,2-dimethylpropanoic acid], the pEC50 in series [1] (setting [4]) was 6.88. In addition, in series [2] (HepG2.2.15 cells), the CC50 at 6 days is 7.2 µM.

Regarding `COC(=O)C1=C(C2CCc3nn(CCC(C)(C)C(=O)O)cc3C2)NC(c2nccs2)=NC1c1ccc(F)c(F)c1Cl` (stereo not shown) [Compound 90c, 4-(5-(6-(2-Chloro-3,4-difluorophenyl)-5-(methoxycarbonyl)-2-(thiazol-2-yl)-3,6-dihydropyrimidin-4-yl)-4,5,6,7-tetrahydro-2H-indazol-2-yl)-2,2-dimethylbutanoic acid], the pEC50 in series [1] (setting [3]) is 7.60. It took 13.3 µM to reach half-maximal cytotoxicity in series [2] (HepG2.2.15 cells) (CC50 at 6 days).

With `CCOC(=O)C1=C(C2CCc3c(cn(CCC(=O)O)c3C#N)C2)NC(c2nccs2)=NC1c1ccc(F)c(F)c1Cl` (stereo not shown) [Compound 62, 3-(5-(6-(2-Chloro-3,4-difluorophenyl)-5-(ethoxycarbonyl)-2-(thiazol-2-yl)-3,6-dihydropyrimidin-4-yl)-1-cyano-4,5,6,7-tetrahydro-2H-isoindol-2-yl)propanoic acid], the negative-log EC50 (pEC50) in series [1] (setting [3]) is 8.16. In addition, half-maximal cytotoxicity in series [2] (HepG2.2.15 cells) (CC50 at 6 days) was put at 5 µM.

For `CCOC(=O)C1=C(C2CCc3nn(CCC(=O)O)cc3C2)NC(c2nccs2)=NC1c1ccc(F)c(F)c1Cl` (single isomer, unassigned) [Compound 34a, 3-(5-(6-(2-chloro-3,4-difluorophenyl)-5-(ethoxycarbonyl)-2-(thiazol-2-yl)-3,6-dihydropyrimidin-4-yl)-4,5,6,7-tetrahydro-2H-indazol-2-yl)propanoic acid], in series [1] (setting [4]), the negative logarithm of the EC50 (pEC50) is 6.41. The compound also had a CC50 at 6 days in series [2] (HepG2.2.15 cells) of 27.5 µM.

As for `CCOC(=O)C1=C(C2CCc3nn(CCCC(=O)O)cc3C2)NC(c2nccs2)=NC1c1ccc(F)c(F)c1Cl` (single isomer, unassigned) [Compound 50b, 4-(5-(6-(2-Chloro-3,4-difluorophenyl)-5-(ethoxycarbonyl)-2-(thiazol-2-yl)-3,6-dihydropyrimidin-4-yl)-4,5,6,7-tetrahydro-2H-indazol-2-yl)butanoic acid], the negative logarithm of the EC50 (pEC50) in series [1] (setting [4]) is 6.93. In series [2] (HepG2.2.15 cells), this compound came in with a 50% cytotoxic concentration (CC50) at 6 days of 12.6 µM.

With `CCOC(=O)C1=C(C2CCc3nn(CCC(=O)O)cc3C2)NC(c2nccs2)=NC1c1ccc(F)cc1Cl` (single isomer, unassigned) [Compound 37b, 3-(5-(6-(2-Chloro-4-fluorophenyl)-5-(ethoxycarbonyl)-2-(thiazol-2-yl)-3,6-dihydropyrimidin-4-yl)-4,5,6,7-tetrahydro-2H-indazol-2-yl)propanoic acid], in series [1] (setting [4]), the pEC50 was 6.76. Also, the CC50 at 6 days in series [2] (HepG2.2.15 cells) was 19.6 µM.

Turning to `CCOC(=O)C1=C(C2CCc3sc(CCC(=O)O)nc3C2)NC(c2nccs2)=NC1c1ccc(F)c(F)c1Cl` (single isomer, unassigned) [Compound 59c, 3-(5-(6-(2-Chloro-3,4-difluorophenyl)-5-(ethoxycarbonyl)-2-(thiazol-2-yl)-3,6-dihydropyrimidin-4-yl)-4,5,6,7-tetrahydrobenzo[d]thiazol-2-yl)propanoic acid], in series [1] (setting [3]), the negative-log EC50 (pEC50) was 6.88. The same compound came in with a CC50 at 6 days in series [2] (HepG2.2.15 cells) of 4.1 µM.

In the case of `CCOC(=O)C1=C(C2CCc3nn(CCC(=O)O)cc3C2)NC(c2nccs2)=NC1c1cccc(F)c1Br` (single isomer, unassigned) [Compound 42b, 3-(5-(6-(2-bromo-3-fluorophenyl)-5-(ethoxycarbonyl)-2-(thiazol-2-yl)-3,6-dihydropyrimidin-4-yl)-4,5,6,7-tetrahydro-2H-indazol-2-yl)propanoic acid], in series [1] (setting [4]), the pEC50 was 6.88. In addition, the CC50 at 6 days in series [2] (HepG2.2.15 cells) was 10.2 µM.

As for `CCOC(=O)C1=C(C2CCc3nc(CCC(=O)O)oc3C2)NC(c2nccs2)=NC1c1ccc(F)c(F)c1Cl` (single isomer, unassigned) [Compound 58b, 3-(6-(6-(2-Chloro-3,4-difluorophenyl)-5-(ethoxycarbonyl)-2-(thiazol-2-yl)-3,6-dihydropyrimidin-4-yl)-4,5,6,7-tetrahydrobenzo[d]oxazol-2-yl)propanoic acid], in series [1] (setting [3]), the pEC50 was 8.21. Moreover, in series [2] (HepG2.2.15 cells), the cytotoxic concentration (CC50) at 6 days worked out at 9.8 µM.

As for `CCOC(=O)C1=C(C2CCc3nn([C@H]4C[C@H](C(=O)O)C4)cc3C2)NC(c2nccs2)=NC1c1ccc(F)c(F)c1Cl` (stereo partly drawn) [Compound 54, (trans)-3-(5-(6-(2-Chloro-3,4-difluorophenyl)-5-(ethoxycarbonyl)-2-(thiazol-2-yl)-3,6-dihydropyrimidin-4-yl)-4,5,6,7-tetrahydro-2H-indazol-2-yl)cyclobutanecarboxylic acid], the negative-log EC50 (pEC50) in series [1] (setting [3]) is 7.70. In series [2] (HepG2.2.15 cells), this compound came in with a CC50 at 6 days of 16 µM.

`CCOC(=O)C1=C(C2CCc3nn(CCC(=O)O)cc3C2)NC(c2nccs2)=NC1c1ccc(F)cc1C` (single isomer, unassigned) [Compound 38a, 3-(5-(5-(Ethoxycarbonyl)-6-(4-fluoro-2-methylphenyl)-2-(thiazol-2-yl)-3,6-dihydropyrimidin-4-yl)-4,5,6,7-tetrahydro-2H-indazol-2-yl)propanoic acid]: the pEC50 in series [1] (setting [4]) was 7.84. Moreover, the CC50 at 6 days in series [2] (HepG2.2.15 cells) stood at 28.2 µM.

As for `CCOC(=O)C1=C(C2CCc3nn(CCC(=O)O)cc3C2)NC(c2nccs2)=NC1c1ccc(F)c(F)c1Br` (single isomer, unassigned) [Compound 36d, 3-(5-(6-(2-Bromo-3,4-difluorophenyl)-5-(ethoxycarbonyl)-2-(thiazol-2-yl)-3,6-dihydropyrimidin-4-yl)-4,5,6,7-tetrahydro-2H-indazol-2-yl)propanoic acid], the pEC50 in series [1] (setting [3]) was 7.06. The compound further yielded a cytotoxic concentration (CC50) at 6 days in series [2] (HepG2.2.15 cells) of 9.7 µM.

As for `COC(=O)C1=C(C2CCc3nn(C(C)(C)CC(=O)O)cc3C2)NC(c2nccs2)=NC1c1ccc(F)c(F)c1Cl` (single isomer, unassigned) [Compound 82b], the negative-log EC50 (pEC50) in series [1] (setting [4]) is 7.06. The same compound came in with a half-maximal cytotoxic concentration (CC50) at 6 days in series [2] (HepG2.2.15 cells) of 15.9 µM.
